# Reference: US10131652B2, “Pyrimidinyloxy benzene derivatives as herbicides” (E. I. DU PONT DE NEMOURS AND COMPANY, priority 2014, dated 2018)
# Assays:
# Format in all cases: in vivo
# [1] = tested on: galium (catchweed bedstraw, Galium aparine); experiment: Test B postemergence plant response
# How it was run: (§1)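 Plants grown in pots of loam soil–sand blend were sprayed postemergence with formulated test chemicals at 2 to 10 cm height, one- to two-leaf stage. After about 10 days in a greenhouse, injury was visually rated against untreated controls on a 0 to 100 scale (0 no effect, 100 complete control).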
# [2] = tested on: blackgrass (Alopecurus myosuroides); experiment: Test B postemergence plant response
# How it was run: as §1
# [3] = tested on: ducksalad (Heteranthera limosa); experiment: Test C flooded paddy test plant response; conditions: Flood, 250 g ai/ha; scale of 0 to 100 where 0 is no effect and 100 is complete control; 13 to 15 days
# How it was run: (§2)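 Water-applied treatment: compounds go directly into floodwater standing 3 cm over the soil of pots holding 2-leaf-stage plants. Depth is kept constant; plants stay in a greenhouse 13 to 15 days before visual comparison with controls on a 0–100 scale.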
# [4] = tested on: rice (Oryza sativa); experiment: Test C flooded paddy test plant response; conditions: Flood, 250 g ai/ha; scale of 0 to 100 where 0 is no effect and 100 is complete control; 13 to 15 days
# How it was run: as §2
# [5] = tested on: small-flower umbrella sedge (Cyperus difformis); experiment: Test C flooded paddy test plant response; conditions: Flood, 250 g ai/ha; scale of 0 to 100 where 0 is no effect and 100 is complete control; 13 to 15 days
# How it was run: as §2
# [6] = tested on: barnyardgrass (Echinochloa crus-galli); experiment: Test C flooded paddy test plant response; conditions: Flood, 250 g ai/ha; scale of 0 to 100 where 0 is no effect and 100 is complete control; 13 to 15 days
# How it was run: as §2
# [7] = tested on: wheat (Triticum aestivum); experiment: Test B pre-/postemergence plant response
# How it was run: (§3)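 Visual injury rating, 0 (no effect) to 100 (complete control), vs untreated controls after ~10 d greenhouse. Pre: directed soil spray after planting in loam/sand. Post: plants 2–10 cm, 1–2 leaf stage. Compound in non-phytotoxic solvent plus surfactant.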
# [8] = tested on: corn (Zea mays); experiment: Test B pre-/postemergence plant response
# How it was run: as §3
# [9] = tested on: giant foxtail (Setaria faberii); experiment: Test B pre-/postemergence plant response
# How it was run: as §3
# [10] = tested on: ragweed (common ragweed, Ambrosia elatior); experiment: Test B pre-/postemergence plant response
# How it was run: as §3
# [11] = tested on: pigweed (Amaranthus retroflexus); experiment: Test B pre-/postemergence plant response
# How it was run: as §3
# [12] = tested on: barnyardgrass (Echinochloa crus-galli); experiment: Test B pre-/postemergence plant response
# How it was run: as §3
# [13] = tested on: kochia (Kochia scoparia); experiment: Test B pre-/postemergence plant response
# How it was run: as §3
# [14] = tested on: Italian ryegrass (Lolium multiflorum); experiment: Test B pre-/postemergence plant response
# How it was run: as §3
# [15] = 125 g ai/ha, postemergence, 0 to 100 scale, 0 no effect, 100 complete control
# [16] = Postemergence, 31 g ai/ha, 0 to 100 scale (0 no effect, 100 complete control)
# [17] = 31 g ai/ha, Preemergence, 0 to 100 scale where 0 is no effect and 100 is complete control
# [18] = Preemergence, 125 g ai/ha, 0 to 100 scale (0 no effect, 100 complete control)
Compound,"Plant response rating, Galium [1, 15]","Plant response rating, Galium [1, 16]","Plant response rating, Blackgrass [2, 15]","Plant response rating, Blackgrass [2, 16]",Ducksalad plant response rating [3],Rice plant response rating [4],"Sedge, Umbrella plant response rating [5]",Barnyardgrass plant response rating [6],"Plant response rating, Wheat [7, 15]","Plant response rating, Wheat [7, 16]","Plant response rating, Corn [8, 15]","Plant response rating, Corn [8, 16]","Plant response rating, Foxtail, Giant [9, 17]","Plant response rating, Foxtail, Giant [9, 15]","Plant response rating, Foxtail, Giant [9, 16]","Foxtail, Giant plant response rating [9, 18]","Plant response rating, Ragweed [10, 17]","Plant response rating, Ragweed [10, 15]","Plant response rating, Ragweed [10, 16]","Ragweed plant response rating [10, 18]",further results
CCOC(=O)c1cc(-c2ccccc2Oc2ncc(Cl)cn2)on1 [Compound 225],0,0,0,0,0,0,0,0,0,0,0,0,0,0,0,0,0,0,0,0,"Plant response rating, Pigweed [11, 17]: 0; Plant response rating, Pigweed [11, 15]: 0; Plant response rating, Pigweed [11, 16]: 0; Pigweed plant response rating [11, 18]: 0; Plant response rating, Barnyardgrass [12, 17]: 0; Plant response rating, Barnyardgrass [12, 15]: 0; Plant response rating, Barnyardgrass [12, 16]: 0; Barnyardgrass plant response rating [12, 18]: 0; Plant response rating, Kochia [13, 17]: 0; Plant response rating, Kochia [13, 15]: 0; Plant response rating, Kochia [13, 16]: 0; Kochia plant response rating [13, 18]: 0; Plant response rating, Ryegrass, Italian [14, 17]: 0; Plant response rating, Ryegrass, Italian [14, 15]: 0; Plant response rating, Ryegrass, Italian [14, 16]: 0; Ryegrass, Italian plant response rating [14, 18]: 0"
FC(F)(F)COc1cc(-c2ccccc2Oc2ncc(Cl)cn2)ncn1 [Compound 227],80,70,70,10,98,0,85,0,20,0,20,10,40,60,10,90,0,30,10,0,"Plant response rating, Pigweed [11, 17]: 40; Plant response rating, Pigweed [11, 15]: 90; Plant response rating, Pigweed [11, 16]: 60; Pigweed plant response rating [11, 18]: 80; Plant response rating, Barnyardgrass [12, 17]: 10; Plant response rating, Barnyardgrass [12, 15]: 60; Plant response rating, Barnyardgrass [12, 16]: 10; Barnyardgrass plant response rating [12, 18]: 50; Plant response rating, Kochia [13, 17]: 0; Plant response rating, Kochia [13, 15]: 80; Plant response rating, Kochia [13, 16]: 40; Kochia plant response rating [13, 18]: 50; Plant response rating, Ryegrass, Italian [14, 17]: 0; Plant response rating, Ryegrass, Italian [14, 15]: 30; Plant response rating, Ryegrass, Italian [14, 16]: 0; Ryegrass, Italian plant response rating [14, 18]: 10"
